Activity calls are given as the source filed them. The rule behind the calls is not given here.
Assays:
Schistosoma mansoni [1] = assay: Antiparasitic activity against adult Schistosoma mansoni Puerto Rico assessed as reduction in egg laying at 10 to 20 uM after 24 hrs by microscopic analysis; type: functional, organism-based
[2] = target: T1, NAD-dependent protein deacetylase sirtuin-2 (Homo sapiens, UniProt Q8IXJ6); assay: Inhibition of N-terminal His6 tagged human sirtuin 2 (25 to 389 residues) assessed as inhibition of substrate demyristoylation using (Z)-(Myr)-Lys-AMC as susbtrate after 4 hrs in presence of NAD+ by homogeneous fluorescence based analysis
T1 sequence (Q8IXJ6 whole entry): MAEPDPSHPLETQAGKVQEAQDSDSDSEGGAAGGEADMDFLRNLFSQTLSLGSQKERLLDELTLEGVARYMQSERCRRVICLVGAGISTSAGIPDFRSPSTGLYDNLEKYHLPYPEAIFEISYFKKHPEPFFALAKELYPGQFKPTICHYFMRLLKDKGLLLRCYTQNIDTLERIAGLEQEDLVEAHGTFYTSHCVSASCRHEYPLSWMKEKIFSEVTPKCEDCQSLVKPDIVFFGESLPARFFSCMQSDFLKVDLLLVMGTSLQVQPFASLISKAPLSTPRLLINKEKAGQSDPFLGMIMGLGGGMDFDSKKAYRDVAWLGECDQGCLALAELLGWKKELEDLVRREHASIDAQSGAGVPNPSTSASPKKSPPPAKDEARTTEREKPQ

[3] = target: T2, NAD-dependent protein deacetylase (Schistosoma mansoni, UniProt T1VXA1); assay: Inhibition of recombinant Schistosoma mansoni sirtuin 2 (21 to 322 residues) expressed in Escherichia coli BL21(DE3) cells using ZMAL as substrate after 1 hr in presence of NAD+ by homogeneous fluorescence based analysis
T2 sequence (T1VXA1 whole entry): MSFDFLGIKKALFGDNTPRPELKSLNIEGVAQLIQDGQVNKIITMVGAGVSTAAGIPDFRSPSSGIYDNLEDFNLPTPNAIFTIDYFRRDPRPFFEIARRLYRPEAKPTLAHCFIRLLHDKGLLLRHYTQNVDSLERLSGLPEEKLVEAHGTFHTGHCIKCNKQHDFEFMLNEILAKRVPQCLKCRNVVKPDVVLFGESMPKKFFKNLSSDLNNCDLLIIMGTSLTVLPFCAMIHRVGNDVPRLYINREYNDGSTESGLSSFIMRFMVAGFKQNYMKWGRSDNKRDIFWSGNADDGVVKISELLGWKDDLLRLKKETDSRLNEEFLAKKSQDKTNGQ

Schistosoma mansoni [4] = assay: Antiparasitic activity against adult Schistosoma mansoni Puerto Rico assessed as reduction in worm pairing at 10 to 20 uM after 24 hrs by microscopic analysis; type: functional, organism-based
Schistosoma mansoni [5] = assay: Antiparasitic activity against Schistosoma mansoni Puerto Rico assessed as reduction in parasite viability at 10 to 20 uM after 72 hrs by microscopic analysis; type: functional, organism-based
[6] = Selectivity ratio of IC50 for N-terminal His6 tagged human sirtuin 2 (25 to 389 residues) to IC50 for recombinant Schistosoma mansoni sirtuin 2 (21 to 322 residues) expressed in Escherichia coli BL21(DE3) cells
[7] = target: T1, NAD-dependent protein deacetylase sirtuin-2; assay: Inhibition of N-terminal His6 tagged human sirtuin 2 (25 to 389 residues) using Cbz-Lys(acetyl)-AMC as substrate after 4 hrs in presence of NAD+ by homogeneous fluorescence based analysis
[8] = target: T3, NAD-dependent protein deacetylase (Schistosoma mansoni) (UniProt T1VXA1); assay: Inhibition of recombinant Schistosoma mansoni sirtuin 2 (21 to 322 residues) expressed in Escherichia coli BL21(DE3) cells assessed as inhibition of substrate demyristoylation at 20 uM using (Z)-(Myr)-Lys-AMC as susbtrate after 1 hr in presence of NAD+ by homogeneous fluorescence based analysis relative to control
T3 sequence (whole entry): T2 sequence (T1VXA1 whole entry)

[9] = target: T1, NAD-dependent protein deacetylase sirtuin-2; assay: Inhibition of human sirutin 2 assessed as inhibition of susbtrate demyristoylation at 20 uM using (Z)-(Myr)-Lys-AMC as substrate relative to control
[10] = target: T3, NAD-dependent protein deacetylase (Schistosoma mansoni); assay: Inhibition of recombinant Schistosoma mansoni sirtuin 2 (21 to 322 residues) expressed in Escherichia coli BL21(DE3) cells in presence of (Z)-(But)Lys-AMC
[11] = target: T3, NAD-dependent protein deacetylase (Schistosoma mansoni); assay: Inhibition of recombinant Schistosoma mansoni sirtuin 2 (21 to 322 residues) expressed in Escherichia coli BL21(DE3) cells in presence of (Z)-(Pal)Lys-AMC
[12] = target: T3, NAD-dependent protein deacetylase (Schistosoma mansoni); assay: Inhibition of recombinant Schistosoma mansoni sirtuin 2 (21 to 322 residues) expressed in Escherichia coli BL21(DE3) cells in presence of (Z)-(Hex)Lys-AMC
[13] = target: T3, NAD-dependent protein deacetylase (Schistosoma mansoni); assay: Inhibition of recombinant Schistosoma mansoni sirtuin 2 (21 to 322 residues) expressed in Escherichia coli BL21(DE3) cells in presence of ZMAL
[14] = target: T2, NAD-dependent protein deacetylase; assay: Inhibition of recombinant Schistosoma mansoni sirtuin 2 (21 to 322 residues) expressed in Escherichia coli BL21(DE3) cells assessed as inhibition of substrate demyristoylation using (Z)-(Myr)-Lys-AMC as substrate
[15] = target: T2, NAD-dependent protein deacetylase; assay: Inhibition of recombinant Schistosoma mansoni sirtuin 2 (21 to 322 residues) expressed in Escherichia coli BL21(DE3) cells assessed as inhibition of substrate deacetylation using ZMAL as substrate
[16] = target: T3, NAD-dependent protein deacetylase (Schistosoma mansoni); assay: Inhibition of recombinant Schistosoma mansoni sirtuin 2 (21 to 322 residues) expressed in Escherichia coli BL21(DE3) cells in presence of (Z)-(Myr)Lys-AMC
[17] = target: T3, NAD-dependent protein deacetylase (Schistosoma mansoni); assay: Inhibition of recombinant Schistosoma mansoni sirtuin 2 (21 to 322 residues) expressed in Escherichia coli BL21(DE3) cells in presence of (Z)-(Lau)Lys-AMC
[18] = target: T3, NAD-dependent protein deacetylase (Schistosoma mansoni); assay: Inhibition of recombinant Schistosoma mansoni sirtuin 2 (21 to 322 residues) expressed in Escherichia coli BL21(DE3) cells in presence of (Z)-(Oct)Lys-AMC
[19] = target: T3, NAD-dependent protein deacetylase (Schistosoma mansoni); assay: Inhibition of recombinant Schistosoma mansoni sirtuin 2 (21 to 322 residues) expressed in Escherichia coli BL21(DE3) cells in presence of (Z)-(Dec)Lys-AMC
[20] = target: T4, NAD-dependent protein deacetylase sirtuin-1 (Homo sapiens, UniProt Q96EB6); assay: Inhibition of human sirtuin 1 at 500 uM relative to control
T4 sequence (Q96EB6 whole entry): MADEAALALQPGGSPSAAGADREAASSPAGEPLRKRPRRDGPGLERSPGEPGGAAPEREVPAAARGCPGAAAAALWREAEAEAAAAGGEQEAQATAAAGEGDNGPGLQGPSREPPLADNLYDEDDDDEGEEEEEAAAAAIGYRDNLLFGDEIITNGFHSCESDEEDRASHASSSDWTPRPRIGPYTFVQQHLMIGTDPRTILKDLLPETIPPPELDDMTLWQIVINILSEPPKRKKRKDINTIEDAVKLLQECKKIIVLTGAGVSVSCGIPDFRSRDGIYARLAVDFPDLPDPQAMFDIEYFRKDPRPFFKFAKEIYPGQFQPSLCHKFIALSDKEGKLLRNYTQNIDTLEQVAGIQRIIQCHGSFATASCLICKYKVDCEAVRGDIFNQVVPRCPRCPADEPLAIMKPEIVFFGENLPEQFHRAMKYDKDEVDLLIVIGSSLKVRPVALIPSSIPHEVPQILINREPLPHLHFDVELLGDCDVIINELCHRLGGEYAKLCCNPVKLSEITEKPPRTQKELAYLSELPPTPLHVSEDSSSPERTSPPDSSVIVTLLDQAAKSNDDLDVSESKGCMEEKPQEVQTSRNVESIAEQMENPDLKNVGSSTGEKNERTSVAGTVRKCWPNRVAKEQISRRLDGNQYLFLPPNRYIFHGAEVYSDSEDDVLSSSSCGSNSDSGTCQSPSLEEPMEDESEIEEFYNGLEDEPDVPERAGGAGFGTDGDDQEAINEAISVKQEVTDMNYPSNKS

HL-60 = assay: Cytotoxicity against human HL60 cells at 10 uM after 72 hrs by Cell titer MTS dye based analysis; conditions: hl-60, 72 h
[21] = target: T2, NAD-dependent protein deacetylase; assay: Inhibition of recombinant Schistosoma mansoni sirtuin 2 (21 to 322 residues) expressed in Escherichia coli BL21(DE3) cells assessed as inhibition of substrate demyristoylation using (Z)-(Myr)-Lys-AMC as susbtrate after 1 hr in presence of NAD+ by homogeneous fluorescence based analysis
[22] = target: T1, NAD-dependent protein deacetylase sirtuin-2; assay: Inhibition of N-terminal His6 tagged human sirtuin 2 (25 to 389 residues) at 25 uM using Cbz-Lys(acetyl)-AMC as substrate after 4 hrs in presence of NAD+ by homogeneous fluorescence based analysis relative to control
[23] = target: T1, NAD-dependent protein deacetylase sirtuin-2; assay: Inhibition of N-terminal His6 tagged human sirtuin 2 (25 to 389 residues) assessed as inhibition of substrate demyristoylation at 20 uM using (Z)-(Myr)-Lys-AMC as susbtrate after 4 hrs in presence of NAD+ by homogeneous fluorescence based analysis relative to control
[24] = target: T1, NAD-dependent protein deacetylase sirtuin-2; assay: Inhibition of N-terminal His6 tagged human sirtuin 2 (25 to 389 residues) at 50 uM using Cbz-Lys(acetyl)-AMC as substrate after 4 hrs in presence of NAD+ by homogeneous fluorescence based analysis relative to control
[25] = substrate: CC(=O)N[C@@H](CCCCN)C(=O)Nc1ccc2c(C)cc(=O)oc2c1; assay: (§1) Substrate activity at recombinant Schistosoma mansoni sirtuin 2 (21 to 322 residues) expressed in Escherichia coli BL21(DE3) cells assessed as Km up to 30 mins by homogeneous fluorescence based analysis; type: ADME
[26] = substrate: CCCCCCCCCCCCCCCC(=O)NCCCC[C@H](NC(=O)OCc1ccccc1)C(=O)Nc1ccc2c(C)cc(=O)oc2c1; assay: as §1; type: ADME
[27] = substrate: NC(=O)c1ccc[n+]([C@H]2O[C@@H](COP(=O)([O-])OP(=O)(O)OC[C@H]3O[C@@H](n4cnc5c(N)ncnc54)[C@H](O)[C@@H]3O)[C@H](O)[C@@H]2O)c1; assay: Substrate activity at recombinant Schistosoma mansoni sirtuin 2 (21 to 322 residues) expressed in Escherichia coli BL21(DE3) cells assessed as Km up to 30 mins in presence of PSDKac at saturating concentration by RP-HPLC analysis; type: ADME
[28] = substrate: NC(=O)c1ccc[n+]([C@H]2O[C@@H](COP(=O)([O-])OP(=O)(O)OC[C@H]3O[C@@H](n4cnc5c(N)ncnc54)[C@H](O)[C@@H]3O)[C@H](O)[C@@H]2O)c1; assay: Substrate activity at recombinant Schistosoma mansoni sirtuin 2 (21 to 322 residues) expressed in Escherichia coli BL21(DE3) cells assessed as Km up to 30 mins in presence of ZMAL at saturated substrate concentration by homogeneous fluorescence based analysis; type: ADME
[29] = substrate: NC(=O)c1ccc[n+]([C@H]2O[C@@H](COP(=O)([O-])OP(=O)(O)OC[C@H]3O[C@@H](n4cnc5c(N)ncnc54)[C@H](O)[C@@H]3O)[C@H](O)[C@@H]2O)c1; assay: Substrate activity at recombinant Schistosoma mansoni sirtuin 2 (21 to 322 residues) expressed in Escherichia coli BL21(DE3) cells assessed as Km up to 30 mins in presence of PSDKmyr at saturating concentration by RP-HPLC analysis; type: ADME
[30] = substrate: CCCCCCCCCCCCCC(=O)NCCCC[C@H](NC(=O)[C@H](CC(=O)O)NC(=O)[C@H](CO)NC(=O)[C@@H]1CCCN1C(C)=O)C(=O)N[C@@H](Cc1ccc(O)cc1)C(=O)N[C@H](C(=O)NCC(=O)NCC(=O)N[C@@H](Cc1c[nH]c2ccccc12)C(=O)N[C@@H](Cc1c[nH]c2ccccc12)C(N)=O)[C@@H](C)CC; assay: Substrate activity at recombinant Schistosoma mansoni sirtuin 2 (21 to 322 residues) expressed in Escherichia coli BL21(DE3) cells assessed as Km up to 30 mins by RP-HPLC analysis; type: ADME
[31] = substrate: NC(=O)c1ccc[n+]([C@H]2O[C@@H](COP(=O)([O-])OP(=O)(O)OC[C@H]3O[C@@H](n4cnc5c(N)ncnc54)[C@H](O)[C@@H]3O)[C@H](O)[C@@H]2O)c1; assay: Substrate activity at recombinant Schistosoma mansoni sirtuin 2 (21 to 322 residues) expressed in Escherichia coli BL21(DE3) cells assessed as Km up to 30 mins in presence of ZMML at saturated concentration by homogeneous fluorescence based analysis; type: ADME

For COc1cc(OC)cc(Sc2ccc(C(c3ccccc3)N(C)c3ncc4c(N)nc(N)nc4n3)cc2)c1 (centres undefined), the inhibition (Schistosoma mansoni [1]) was “Active”, the IC50 [2] was 15.6 µM and the IC50 [3] was 2 µM. The inhibition (Schistosoma mansoni [4]) was “Active”, the inhibition (Schistosoma mansoni [5]) was “Active” and the Ratio IC50 [6] was 10. The IC50 [7] was 21.5 µM and the inhibition [8] was less than 15%.

With NC(=O)c1cccnc1 [NIACINAMIDE] the inhibition at 20 µM [9] was 8.7%, the inhibition [10] was “Active” and the inhibition [11] was “inactive”. For the same molecule, the inhibition [12] was “Active”, the inhibition [13] was “Active” and the IC50 [14] was 420 µM. The IC50 [15] was 23.1 µM, the inhibition [16] was “inactive” and the inhibition [17] was “inactive”. The inhibition [18] was “Active”, the inhibition [19] was “inactive” and the inhibition at 500 µM [20] was 100%.

In the case of COc1ccc(Oc2ccc(C(C)N(C)c3ncc4c(N)nc(N)nc4n3)cc2)cc1 (centres undefined), the inhibition (Schistosoma mansoni [1]) is reported as “Active”, the Activity (HL-60) is reported as “Non-Toxic” and the IC50 [21] is reported as 16.8 µM. For the same molecule, the IC50 [3] was 23.7 µM, the inhibition (Schistosoma mansoni [4]) was “Active” and the inhibition (Schistosoma mansoni [5]) was “Active”. It also gave an inhibition at 25 µM [22] of 21.9%, an Imax [8] of 45% and an inhibition at 20 µM [23] of less than 15%. The inhibition at 50 µM [24] was 24.1%.

B1: NAD-dependent protein deacetylase (Schistosoma mansoni) (protein)
chain: T2 sequence (T1VXA1 whole entry)
In the case of B1, the Km [25] is reported as 59 µM, the Km [26] is reported as 37.5 µM and the Km [27] is reported as 33.9 µM. For the same molecule, the kcat [27] was 0.00172 s⁻¹, the kcat/Km [27] was 51 M⁻¹ s⁻¹ and the Km [28] was 75.8 µM. It also gave a kcat [28] of 0.000119 s⁻¹, a Km [29] of 13.3 µM and a kcat [29] of 0.00538 s⁻¹. For the same molecule, the kcat/Km [29] was 410 M⁻¹ s⁻¹, the Km [30] was 15.1 µM and the kcat [30] was 0.00563 s⁻¹. For the same molecule, the kcat/Km [30] was 370 M⁻¹ s⁻¹ and the Km [31] was 9.3 µM.
